Source: article PMC9386204, “Design, synthesis, and in silico studies of quinoline-based-benzo[d]imidazole bearing different acetamide derivatives as potent α-glucosidase inhibitors” (Scientific Reports, 2022)

Columns and labels:
[1] = Concentrations of precipitation; type: physicochemical
Text: Table 1 α-Glucosidase inhibitory activity of compounds 9a–r. | column: Concentrations of precipitation (µM)

α-glucosidase [2] = molecular target: T1, α-glucosidase (Saccharomyces cerevisiae, UniProt P53341); assay: α-Glucosidase inhibitory assay; details: for IC50: α-glucosidase inhibition, mean ± SD
Procedure: The α-glucosidase inhibitory activities of all synthesized derivatives were assayed according to the previously reported procedure[9],[36].

α-glucosidase [3] = molecular target: T1, α-glucosidase; assay: Enzyme kinetic studies (Lineweaver–Burk plot, secondary plot); type: biochemical; details: Km increased, Vmax unchanged
Procedure: A Lineweaver–Burk plot was generated to identify the type of inhibition and the Michaelis–Menten constant (Km) value was determined from the plot between reciprocal of the substrate concentration (1/[S]) and reciprocal of enzyme rate (1/V) over various inhibitor concentrations. The experimental inhibitor constant (Ki) value was constructed by secondary plots of the inhibitor concentration [I] versus Km[6].

T1 sequence (P53341 whole entry): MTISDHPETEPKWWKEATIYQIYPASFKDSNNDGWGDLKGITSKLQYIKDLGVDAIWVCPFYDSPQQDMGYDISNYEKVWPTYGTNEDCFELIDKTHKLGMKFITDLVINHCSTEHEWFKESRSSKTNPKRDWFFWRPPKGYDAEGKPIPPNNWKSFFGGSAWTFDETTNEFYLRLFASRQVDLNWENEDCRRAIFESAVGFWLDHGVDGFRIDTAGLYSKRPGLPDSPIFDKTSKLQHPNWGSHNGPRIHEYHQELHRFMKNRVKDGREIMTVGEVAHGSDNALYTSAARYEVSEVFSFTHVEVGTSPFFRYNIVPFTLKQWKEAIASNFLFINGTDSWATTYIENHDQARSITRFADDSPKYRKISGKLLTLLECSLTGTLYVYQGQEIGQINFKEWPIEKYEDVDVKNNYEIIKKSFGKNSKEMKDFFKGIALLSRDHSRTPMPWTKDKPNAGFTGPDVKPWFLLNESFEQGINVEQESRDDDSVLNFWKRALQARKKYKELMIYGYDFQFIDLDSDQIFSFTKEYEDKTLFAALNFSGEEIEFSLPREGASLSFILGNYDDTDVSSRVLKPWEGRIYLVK

| Concentrations of precipitation [1] | fold loss of potency compared to 9a (α-glucosidase [2]; versus 9a) | melting point | type of inhibition (α-glucosidase [3]) | Molecule | IC50 (α-glucosidase [2]) |
| --- | --- | --- | --- | --- | --- |
| ≥ 200 µM | – | – | – | O=C(CSc1nc2ccccc2cc1-c1nc2ccccc2[nH]1)Nc1ccccc1 [Compound 9a, 2-((3-(1H-benzo[d]imidazol-2-yl)quinolin-2-yl)thio)-N-phenylacetamide] | – |
| ≥ 200 µM | around the twofold loss of potency | 183 to 185 °C | – | O=C(CSc1nc2ccccc2cc1-c1nc2ccccc2[nH]1)Nc1ccccc1F [Compound 9b, 2-((3-(1H-benzo[d]imidazol-2-yl)quinolin-2-yl)thio)-N-(2-fluorophenyl)acetamide] | – |
| ≥ 200 µM | – | 190 to 192 °C | competitive inhibition | O=C(CSc1nc2ccccc2cc1-c1nc2ccccc2[nH]1)Nc1cccc(Cl)c1 [Compound 9d, 2-((3-(1H-benzo[d]imidazol-2-yl)quinolin-2-yl)thio)-N-(3-chlorophenyl)acetamide] | – |
| ≥ 200 µM | – | 185 to 187 °C | – | O=C(CSc1nc2ccccc2cc1-c1nc2ccccc2[nH]1)Nc1ccc(Cl)cc1 [Compound 9e, 2-((3-(1H-benzo[d]imidazol-2-yl)quinolin-2-yl)thio)-N-(4-chlorophenyl)acetamide] | – |
| ≥ 200 µM | – | 181 to 183 °C | – | O=C(CSc1nc2ccccc2cc1-c1nc2ccccc2[nH]1)Nc1ccccc1Br [Compound 9f, 2-((3-(1H-benzo[d]imidazol-2-yl)quinolin-2-yl)thio)-N-(2-bromophenyl)acetamide] | – |
| ≥ 200 µM | – | 185 to 187 °C | – | O=C(CSc1nc2ccccc2cc1-c1nc2ccccc2[nH]1)Nc1ccc(Br)cc1 [Compound 9g, 2-((3-(1H-benzo[d]imidazol-2-yl)quinolin-2-yl)thio)-N-(4-bromophenyl)acetamide] | – |
| ≥ 200 µM | – | 188 to 190 °C | – | O=C(CSc1nc2ccccc2cc1-c1nc2ccccc2[nH]1)Nc1c(Cl)cccc1Cl [Compound 9h, 2-((3-(1H-benzo[d]imidazol-2-yl)quinolin-2-yl)thio)-N-(2,6-dichlorophenyl)acetamide] | – |
| ≥ 200 µM | – | 180 to 182 °C | – | O=C(CSc1nc2ccccc2cc1-c1nc2ccccc2[nH]1)Nc1ccc([N+](=O)[O-])cc1 [Compound 9i, 2-((3-(1H-benzo[d]imidazol-2-yl)quinolin-2-yl)thio)-N-(4-nitrophenyl)acetamide] | – |
| ≥ 200 µM | – | – | – | Cc1ccccc1NC(=O)CSc1nc2ccccc2cc1-c1nc2ccccc2[nH]1 [Compound 9j] | – |
| ≥ 200 µM | – | 181 to 183 °C | – | Cc1ccc(NC(=O)CSc2nc3ccccc3cc2-c2nc3ccccc3[nH]2)cc1 [Compound 9k] | – |
| ≥ 200 µM | – | 191 to 193 °C | – | COc1ccc(NC(=O)CSc2nc3ccccc3cc2-c2nc3ccccc3[nH]2)cc1 [Compound 9l, 2-((3-(1H-benzo[d]imidazol-2-yl)quinolin-2-yl)thio)-N-(4-methoxyphenyl)acetamide] | – |
| ≥ 200 µM | – | 178 to 180 °C | – | CCc1ccc(NC(=O)CSc2nc3ccccc3cc2-c2nc3ccccc3[nH]2)cc1 [Compound 9m, 2-((3-(1H-benzo[d]imidazol-2-yl)quinolin-2-yl)thio)-N-(4-ethylphenyl)acetamide] | – |
| ≥ 200 µM | – | 185 to 187 °C | – | Cc1cccc(NC(=O)CSc2nc3ccccc3cc2-c2nc3ccccc3[nH]2)c1C [Compound 9n, 2-((3-(1H-benzo[d]imidazol-2-yl)quinolin-2-yl)thio)-N-(2,3-dimethylphenyl)acetamide] | – |
| ≥ 200 µM | – | 185 to 187 °C | – | Cc1cccc(C)c1NC(=O)CSc1nc2ccccc2cc1-c1nc2ccccc2[nH]1 [Compound 9o, 2-((3-(1H-benzo[d]imidazol-2-yl)quinolin-2-yl)thio)-N-(2,6-dimethylphenyl)acetamide] | – |
| ≥ 200 µM | – | – | – | O=C(CSc1nc2ccccc2cc1-c1nc2ccccc2[nH]1)Nc1ccc2ccccc2c1 [Compound 9p, 2-((3-(1H-benzo[d]imidazol-2-yl)quinolin-2-yl)thio)-N-(naphthalen-2-yl)acetamide] | 17.7 ± 0.8 µM |
| ≥ 200 µM | – | 183 to 185 °C | – | O=C(CSc1nc2ccccc2cc1-c1nc2ccccc2[nH]1)NCc1ccccc1 [Compound 9q, 2-((3-(1H-benzo[d]imidazol-2-yl)quinolin-2-yl)thio)-N-benzylacetamide] | – |
| ≥ 200 µM | – | 186 to 188 °C | – | O=C(CSc1nc2ccccc2cc1-c1nc2ccccc2[nH]1)NCc1ccc(F)cc1 [Compound 9r, 2-((3-(1H-benzo[d]imidazol-2-yl)quinolin-2-yl)thio)-N-(4-fluorobenzyl)acetamide] | – |

| Molecule | Concentrations of precipitation [1] | fold loss of potency compared to 9a (α-glucosidase [2]; versus 9a) | melting point | type of inhibition (α-glucosidase [3]) | IC50 (α-glucosidase [2]) |
| --- | --- | --- | --- | --- | --- |
| 2-((3-(1H-benzo[d]imidazol-2-yl)naphthalen-2-yl)thio)-N-(4-fluorophenyl)acetamide [Compound 9c] | ≥ 200 µM | – | – | – | 13.5 ± 0.6 µM |
